The text below walks through data of ChEMBL document CHEMBL1201862, “PubChem BioAssay data set” (2004).

Among the test systems are 786-0; A549; BT-549; CCRF-CEM; DU-145; HCT-116; HT-29; M14; MOLT-4; Malme-3M; NCI-H226; NCI-H522; OVCAR-3; OVCAR-5; OVCAR-8; RPMI-8226; SF-539; SK-MEL-28; SW-620; T47D.
Assay in all cases: NCI-60 cell line screen, 48 h

Values joined by “and” are separate entries in the source; they are usually repeats but may differ in a detail not shown here. Equal entries are not always repeated.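 These data come from cells grown in 96-well plates and exposed to compound for 48 hours at five concentrations. At the GI50, growth is halved.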 Active and inactive are the calls of the source. Rule as the data show it: active = GI50 up to about 1.1 µM and inactive = higher. Bounds are passed on as bounds.

`O=C1CCCC2=C(N1)C(=O)C=CC2=O`: the GI50 was 42.5 µM (inactive) in the assay on 786-0; > 63.1 µM (inactive) in the assay with A549; 16.7 µM (inactive) in the assay with BT-549; 10.6 µM (inactive) in the assay with CCRF-CEM; 17.5 µM (inactive) in the assay on DU-145; 33.7 µM (inactive) in the assay with HCT-116. Besides, the GI50 was 42.8 µM (inactive) with HT-29; 39.8 µM (inactive) in the assay with M14; 12.3 µM (inactive) in the assay with MOLT-4; 39.4 µM (inactive) in the assay with Malme-3M; 11.1 µM (inactive) with NCI-H226; 13.6 µM (inactive) in the assay on NCI-H522. For the same molecule, the GI50 was 43.5 µM (inactive) in the assay on OVCAR-3; 33.4 µM (inactive) in the assay with OVCAR-5; 47.4 µM (inactive) in the assay on OVCAR-8; 23.9 µM (inactive) in the assay on RPMI-8226; 44.4 µM (inactive) with SF-539; 45.4 µM (inactive) in the assay on SK-MEL-28. Moreover, the GI50 in the assay on SW-620 was 23.1 µM (inactive); with T47D, 22 µM (inactive).

On to `C=CCSSCC=C`, for which the GI50 is 22.5 µM (inactive) in the assay with 786-0; > 83.8 µM (inactive) with A549; 42.3 µM (inactive) with BT-549; 1.98 µM (inactive) with CCRF-CEM; > 100 µM (inactive) with DU-145; 13.6 µM (inactive) in the assay on HCT-116. Besides, the GI50 in the assay with HT-29 was 38.4 µM (inactive); in the assay on M14, 31.8 µM (inactive); in the assay with MOLT-4 it was 1.8 µM (inactive); with Malme-3M, 40.9 µM (inactive); in the assay on NCI-H226, 32.1 µM (inactive); in the assay on NCI-H522, 15.9 µM (inactive). Also, the GI50 in the assay with OVCAR-3 was 52 µM (inactive); with OVCAR-5 it was 51.6 µM (inactive); in the assay on OVCAR-8, 27.6 µM (inactive); with RPMI-8226 it was 4.05 µM (inactive); in the assay with SF-539 it was 29.5 µM (inactive); with SK-MEL-28 it was > 74.8 µM (inactive). Also, the GI50 with SW-620 was 19.1 µM (inactive); in the assay with T47D, > 100 µM (inactive).

As for `COC(=O)[C@H]1C=C[C@H](OC2OC(COC(C)=O)C(OC(C)=O)C(OC(C)=O)C2OC(C)=O)n2c(=O)n(-c3ccccc3)c(=O)n21` (some centres not stated), the GI50 in the assay with 786-0 was 2.45 µM (inactive); in the assay on A549, 17.4 µM (inactive); in the assay with BT-549 it was 3.04 µM (inactive); in the assay on CCRF-CEM, 2.25 µM (inactive); in the assay with DU-145, 6.08 µM (inactive); in the assay on HCT-116 it was 2.96 µM (inactive). Moreover, the GI50 in the assay on HT-29 is 2.61 µM (inactive); in the assay on M14, 2.7 µM (inactive); in the assay on MOLT-4, 2.49 µM (inactive); in the assay on NCI-H226 it was 7.06 µM (inactive); with NCI-H522, 0.222 µM (active); in the assay with OVCAR-3, 2.91 µM (inactive). In addition, the GI50 in the assay with OVCAR-5 is 9.18 µM (inactive); in the assay on OVCAR-8 it was 5.78 µM (inactive); with RPMI-8226, 1.66 µM (inactive); with SF-539 it was 2.09 µM (inactive); in the assay on SK-MEL-28, 2.49 µM (inactive); in the assay on SW-620, 2.18 µM (inactive). Besides, the GI50 in the assay on T47D is 3.48 µM (inactive).

With `Nc1ccc(-c2nc3ccccc3s2)cc1C#Cc1ccccc1`, the GI50 is 17.7 µM (inactive) with 786-0; 22.6 µM (inactive) in the assay with A549; 17.1 µM (inactive) with BT-549; 29.2 µM (inactive) in the assay with CCRF-CEM; 23.8 µM (inactive) in the assay on DU-145; 14.4 µM (inactive) with HCT-116. Also, the GI50 in the assay on HT-29 was 19.6 µM (inactive); in the assay with M14, 16.3 µM (inactive); in the assay with MOLT-4, 32.5 µM (inactive); with Malme-3M, 12.2 µM (inactive); in the assay on NCI-H226, 20.1 µM (inactive); with NCI-H522, 18.9 µM (inactive). In addition, the GI50 was 15.5 µM (inactive) with OVCAR-3; 27.2 µM (inactive) in the assay on OVCAR-5; 19.8 µM (inactive) with OVCAR-8; 20.9 µM (inactive) with RPMI-8226; 18.2 µM (inactive) with SF-539; 17.8 µM (inactive) with SW-620. Besides, in the assay on T47D, the GI50 is 27 µM (inactive).

For the molecule `C=C(Br)C(Cl)(CBr)CCC(Br)C(C)(C)Cl` (configuration not stated), the GI50 in the assay on 786-0 is 5.36 µM (inactive); in the assay on A549, > 10 µM (inactive); with BT-549, > 10 µM (inactive); in the assay on CCRF-CEM, > 10 µM (inactive); in the assay with DU-145 it was > 10 µM (inactive); in the assay with HCT-116, > 10 µM (inactive). Also, the GI50 with HT-29, in the assay on M14, in the assay with MOLT-4, in the assay on NCI-H226, with NCI-H522 and in the assay with OVCAR-3 was > 10 µM (inactive) throughout. For the same molecule, the GI50 in the assay with OVCAR-5 is > 10 µM (inactive); in the assay on OVCAR-8, > 10 µM (inactive); in the assay on RPMI-8226, 9.2 µM (inactive); in the assay on SF-539, > 10 µM (inactive); in the assay with SK-MEL-28 it was > 10 µM (inactive); in the assay on SW-620 it was > 10 µM (inactive). Besides, in the assay on T47D, the GI50 is > 10 µM (inactive).

`N#CC1=CNc2sccc2S1(=O)=O`: the GI50 in the assay with 786-0 is > 100 µM (inactive); in the assay on A549, > 100 µM (inactive); in the assay on BT-549, > 100 µM (inactive); in the assay with DU-145 it was > 100 µM (inactive); in the assay on HCT-116 it was 89.7 µM (inactive); with HT-29 it was > 100 µM (inactive). In addition, the GI50 is > 100 µM (inactive) with M14; 39.6 µM (inactive) in the assay with MOLT-4; > 100 µM (inactive) with Malme-3M; > 100 µM (inactive) in the assay on NCI-H226; > 100 µM (inactive) with NCI-H522; > 100 µM (inactive) with OVCAR-3. Moreover, the GI50 in the assay with OVCAR-5, in the assay with OVCAR-8, in the assay on RPMI-8226, in the assay on SF-539, with SK-MEL-28 and in the assay on SW-620 was > 100 µM (inactive) in each case. Moreover, the GI50 with T47D was 72.9 µM (inactive).

Regarding `Cc1cc2nc(-c3cc(C(C)(C)C)c(O)c(C(C)(C)C)c3)[nH]c2cc1C`, the GI50 in the assay with 786-0 was 0.867 µM (active); in the assay with A549, 2.44 µM (inactive); with BT-549, > 100 µM (inactive); with CCRF-CEM it was 1.39 µM (inactive); in the assay with DU-145 it was > 100 µM (inactive); in the assay on HCT-116, 1.79 µM (inactive). Besides, the GI50 was 4.67 µM (inactive) with M14; 1.82 µM (inactive) in the assay on MOLT-4; > 100 µM (inactive) with Malme-3M; > 100 µM (inactive) in the assay with NCI-H226; > 100 µM (inactive) in the assay on NCI-H522; 11.6 µM (inactive) in the assay with OVCAR-3. Moreover, the GI50 was > 100 µM (inactive) in the assay on OVCAR-5; 12.7 µM (inactive) in the assay on OVCAR-8; 12.8 µM (inactive) in the assay on RPMI-8226; 28.1 µM (inactive) in the assay on SF-539; > 100 µM (inactive) in the assay on SK-MEL-28; 1.65 µM (inactive) in the assay on SW-620. Moreover, in the assay on T47D, the GI50 is > 100 µM (inactive).

Turning to `COCOc1c(C(OCOC)c2cnc(Sc3ccccc3)n2C)ccc(OC)c1OC` (configuration not stated), the GI50 in the assay with 786-0, with A549, in the assay with BT-549, in the assay with CCRF-CEM, in the assay on DU-145 and with HCT-116 was > 100 µM (inactive) each time. The GI50 with HT-29 is > 100 µM (inactive); in the assay on MOLT-4, 87.1 µM (inactive); in the assay with Malme-3M, > 100 µM (inactive); in the assay on NCI-H226, 76.7 µM (inactive); with NCI-H522, 90.8 µM (inactive); in the assay with OVCAR-3, > 100 µM (inactive). For the same molecule, the GI50 is > 100 µM (inactive) in the assay on OVCAR-5; > 100 µM (inactive) with OVCAR-8; 65 µM (inactive) with RPMI-8226; > 100 µM (inactive) with SF-539; > 100 µM (inactive) with SK-MEL-28; > 100 µM (inactive) with SW-620. Also, the GI50 with T47D was 82.2 µM (inactive).

Regarding `CC1C2CC(CC23OCC(CCl)O3)C1(C)C` (configuration not stated), the GI50 in the assay with 786-0, in the assay with A549, in the assay on BT-549, in the assay on CCRF-CEM, in the assay on DU-145 and in the assay on HCT-116 was > 100 µM (inactive) each time. In addition, the GI50 in the assay with HT-29, in the assay on M14, in the assay on MOLT-4, in the assay on Malme-3M, with NCI-H226 and in the assay with NCI-H522 was > 100 µM (inactive) each time. Moreover, the GI50 in the assay on OVCAR-3, in the assay with OVCAR-8, with RPMI-8226, in the assay with SF-539, in the assay on SK-MEL-28 and in the assay with SW-620 was > 100 µM (inactive) throughout. Moreover, the GI50 in the assay on T47D was > 100 µM (inactive).

For the molecule `N#Cc1c(-c2ccccc2)c(C#N)c(=S)n(C2OC(CO)C(O)C(O)C2O)c1N` (configuration not stated), the GI50 in the assay on 786-0 was > 100 µM (inactive); with A549, > 100 µM (inactive); in the assay with BT-549 it was 46.1 µM (inactive) and 80 µM (inactive); in the assay with CCRF-CEM, > 100 µM (inactive) and 50.9 µM (inactive); in the assay with DU-145 it was > 100 µM (inactive); in the assay on HCT-116, > 100 µM (inactive). Further, the GI50 in the assay on HT-29 is > 100 µM (inactive); with M14 it was > 100 µM (inactive); in the assay with Malme-3M it was > 100 µM (inactive); in the assay on NCI-H226 it was > 100 µM (inactive); with NCI-H522, 33.4 µM (inactive) and 51.5 µM (inactive); in the assay on OVCAR-3, > 100 µM (inactive). Also, the GI50 with OVCAR-5 was > 100 µM (inactive) and 85.1 µM (inactive); in the assay on OVCAR-8, > 100 µM (inactive); in the assay on RPMI-8226 it was > 100 µM (inactive) and 75.5 µM (inactive); in the assay on SF-539, > 100 µM (inactive); in the assay with SK-MEL-28 it was > 100 µM (inactive); with SW-620, > 100 µM (inactive). For the same molecule, in the assay with T47D, the GI50 is 52.6 µM (inactive) and 68.5 µM (inactive).
